Measurements as given in patent US20250313535A1, “ALPHA 4 BETA 7 INTEGRIN MODULATORS AND USES THEREOF” (DICE MOLECULES SV, INC., priority 2022, published 2025).
Like-named read-outs stand apart in the source and are kept apart here.

Legend:
α4β7 integrin = α4β7 integrin (Homo sapiens (Human), UniProt P13612+P26010); assay: Integrin Adhesion Assay: Protocol 4 (MAdCAM-coated plate, RPMI-8866 cells with stable LOF mutation of the ITGB1 gene); type: cell-based
In short: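 RPMI-8866 cells with CRISPR/Cas9 knockout of ITGB1 (2×10^6/mL) were added to MAdCAM-coated wells with compound (1% DMSO) in HEPES/NaCl buffer with 1 mM MnCl2, 0.1 mM CaCl2 and 1% BSA, then incubated 1 h at 37 °C. After four washes, adherent cells were quantified by CellTiter-Glo luminescence. Percent inhibition versus DMSO and control compound was fitted to 4-parameter curves.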

α4β1 integrin = α4β1 integrin (Homo sapiens (Human), UniProt P05556+P13612); assay: Integrin Adhesion Assay: Protocol 5 (VCAM-coated plate, RPMI-8866 cells with stable LOF mutation of the ITGB7 gene); type: cell-based
Sequence of α4β1 integrin (P13612 34-1032): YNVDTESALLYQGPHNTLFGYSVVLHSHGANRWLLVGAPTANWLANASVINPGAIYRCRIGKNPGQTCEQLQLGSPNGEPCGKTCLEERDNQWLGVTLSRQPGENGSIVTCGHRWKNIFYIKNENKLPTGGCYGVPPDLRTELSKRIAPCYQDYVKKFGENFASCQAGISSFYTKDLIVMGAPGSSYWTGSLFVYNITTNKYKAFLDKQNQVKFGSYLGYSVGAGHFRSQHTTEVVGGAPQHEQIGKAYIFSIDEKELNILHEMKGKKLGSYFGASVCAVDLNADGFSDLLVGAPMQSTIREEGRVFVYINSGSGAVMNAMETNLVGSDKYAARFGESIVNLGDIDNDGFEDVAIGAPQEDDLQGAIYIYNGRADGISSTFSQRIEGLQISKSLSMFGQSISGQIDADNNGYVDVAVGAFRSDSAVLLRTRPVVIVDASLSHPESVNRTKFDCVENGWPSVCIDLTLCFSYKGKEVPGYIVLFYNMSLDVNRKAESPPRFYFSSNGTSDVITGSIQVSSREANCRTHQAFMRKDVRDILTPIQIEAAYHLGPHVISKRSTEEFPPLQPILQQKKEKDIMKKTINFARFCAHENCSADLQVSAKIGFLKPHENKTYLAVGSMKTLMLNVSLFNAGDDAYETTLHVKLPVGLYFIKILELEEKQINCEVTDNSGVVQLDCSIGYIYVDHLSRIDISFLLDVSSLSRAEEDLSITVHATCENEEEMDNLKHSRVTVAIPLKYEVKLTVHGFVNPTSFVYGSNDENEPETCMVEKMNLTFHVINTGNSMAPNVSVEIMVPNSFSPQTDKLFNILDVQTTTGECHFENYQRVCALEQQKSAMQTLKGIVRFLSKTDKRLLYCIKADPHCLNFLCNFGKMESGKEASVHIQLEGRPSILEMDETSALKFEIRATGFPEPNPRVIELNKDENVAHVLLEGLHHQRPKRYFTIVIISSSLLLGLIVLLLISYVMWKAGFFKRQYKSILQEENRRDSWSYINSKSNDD
Sequence of α4β1 integrin (P05556 21-798): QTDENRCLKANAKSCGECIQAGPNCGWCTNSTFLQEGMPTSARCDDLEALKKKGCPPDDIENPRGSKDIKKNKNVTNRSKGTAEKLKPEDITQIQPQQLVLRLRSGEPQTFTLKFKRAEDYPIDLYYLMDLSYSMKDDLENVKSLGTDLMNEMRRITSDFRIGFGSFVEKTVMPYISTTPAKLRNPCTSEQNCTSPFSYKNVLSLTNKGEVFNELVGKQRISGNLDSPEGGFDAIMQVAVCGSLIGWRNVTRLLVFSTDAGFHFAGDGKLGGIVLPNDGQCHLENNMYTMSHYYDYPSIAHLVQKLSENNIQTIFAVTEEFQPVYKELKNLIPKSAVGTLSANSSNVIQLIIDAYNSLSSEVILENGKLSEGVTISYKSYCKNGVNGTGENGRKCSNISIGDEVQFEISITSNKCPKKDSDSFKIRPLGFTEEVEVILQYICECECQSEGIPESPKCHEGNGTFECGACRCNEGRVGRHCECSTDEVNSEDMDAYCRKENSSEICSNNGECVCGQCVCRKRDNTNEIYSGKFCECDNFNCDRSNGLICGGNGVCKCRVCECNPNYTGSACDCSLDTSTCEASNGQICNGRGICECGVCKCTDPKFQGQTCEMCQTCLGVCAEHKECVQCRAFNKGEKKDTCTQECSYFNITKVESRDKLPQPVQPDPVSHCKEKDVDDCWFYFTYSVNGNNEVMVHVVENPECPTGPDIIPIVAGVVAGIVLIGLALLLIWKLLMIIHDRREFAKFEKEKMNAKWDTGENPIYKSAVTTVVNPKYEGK
In short: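 RPMI-8866 B cells with CRISPR/Cas9 ITGB7 knockout (clonal, verified by flow cytometry) adhered to VCAM-coated wells for 1 h at 37° C in HEPES/NaCl buffer with 1 mM MnCl2, 0.1 mM CaCl2, 1% BSA, 1% DMSO. Bound cells quantified by CellTiter-Glo luminescence after washing; % inhibition versus DMSO and control, 4-parameter fit.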

[1] = RPMI-8866 cells with stable LOF mutation of the ITGB1 gene, read-out: Mean IC50 α4β7 KO^a
[2] = RPMI-8866 cells with stable LOF mutation of the ITGB7 gene, read-out: Mean IC50 α4β1 KO^b
[3] = Protocol 4, RPMI-8866 cells with LOF mutation of ITGB1, MAdCAM, read-out: Mean IC50 α4β7 KO
[4] = Protocol 5, RPMI-8866 cells with LOF mutation of ITGB7, VCAM, read-out: Mean IC50 α4β1 KO

Sequence of α4β7 integrin (P13612 34-1032): as the sequence (P13612 34-1032) above
Sequence of α4β7 integrin (P26010 20-798): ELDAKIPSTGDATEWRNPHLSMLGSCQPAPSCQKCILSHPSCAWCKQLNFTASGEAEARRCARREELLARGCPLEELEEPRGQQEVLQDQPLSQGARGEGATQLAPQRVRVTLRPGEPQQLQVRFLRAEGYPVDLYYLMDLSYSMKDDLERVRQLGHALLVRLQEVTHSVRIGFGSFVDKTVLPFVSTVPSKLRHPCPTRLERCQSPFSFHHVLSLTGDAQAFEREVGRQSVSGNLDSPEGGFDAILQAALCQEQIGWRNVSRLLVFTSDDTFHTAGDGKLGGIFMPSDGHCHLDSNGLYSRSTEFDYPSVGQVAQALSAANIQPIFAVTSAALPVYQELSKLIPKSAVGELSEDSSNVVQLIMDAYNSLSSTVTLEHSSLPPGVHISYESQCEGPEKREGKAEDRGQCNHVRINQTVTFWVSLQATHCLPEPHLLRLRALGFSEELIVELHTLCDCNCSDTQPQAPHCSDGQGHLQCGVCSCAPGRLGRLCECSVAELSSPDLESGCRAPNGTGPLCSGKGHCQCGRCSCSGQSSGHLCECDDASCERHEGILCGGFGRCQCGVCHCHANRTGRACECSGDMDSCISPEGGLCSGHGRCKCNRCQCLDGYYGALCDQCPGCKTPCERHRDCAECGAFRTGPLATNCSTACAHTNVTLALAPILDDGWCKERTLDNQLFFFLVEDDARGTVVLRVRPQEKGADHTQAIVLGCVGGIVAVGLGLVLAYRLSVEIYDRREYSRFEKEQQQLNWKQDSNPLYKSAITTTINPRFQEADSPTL

IC50 (α4β7 integrin; [1]) [nM] | IC50 (α4β1 integrin; [2]) [nM] | IC50 (α4β7 integrin; [3]) [nM] | IC50 (α4β1 integrin; [4]) [nM] | Compound
< 10 | 100 to 1000 |  |  | COc1ccc(CN2CCC(C(F)(F)F)CC2)c(OC)c1-c1cccc2c(C[C@H](NC(=O)c3c(C)cccc3F)C(=O)O)cccc12 [Compound 569]
 |  | 100 to 1000 | > 1000 | O=C(O)[C@H](Cc1cccc2c(-c3cccc4cc(CN5CCCCC5)ncc34)cccc12)NC(=O)C1(C(F)(F)F)CCN(CC(F)(F)F)CC1 [Compound 991]
 |  | < 10 | 100 to 1000 | COc1ccc(CN(C)C)c(OC(F)(F)F)c1-c1cccc2c(C[C@H](NC(=O)c3c(C)cccc3F)C(=O)O)cccc12 [Compound 703]
< 10 | > 1000 |  |  | COc1ccc(CN2CCC(F)(F)CC2)c(OC)c1-c1cccc2c(C[C@H](NC(=O)c3c(C)cncc3F)C(=O)O)cccc12 [Compound 604]
 |  | < 10 | > 1000 | O=C(O)[C@H](Cc1cccc2c(-c3ncc(CN4CCCCC4)c4ccccc34)cccc12)NC(=O)C1(C(F)(F)F)CCN(CC(F)F)CC1 [Compound 888]
 |  | < 10 | 10 to 100 | COc1ccc(CN2CC[C@H](F)C2)cc1-c1cccc2c(C[C@H](NC(=O)C3(C(F)(F)F)CCN(CC(F)F)CC3)C(=O)O)cccc12 [Compound 943]
< 10 | 100 to 1000 |  |  | COc1ccc(CN2CC(OC)C2)c(OC)c1-c1cccc2c(C[C@H](NC(=O)c3c(C)cccc3F)C(=O)O)cccc12 [Compound 638]
 |  | < 10 | 10 to 100 | Cn1c(=O)c(-c2cccc3c(C[C@H](NC(=O)C4(C(F)(F)F)CCN(CC(F)F)CC4)C(=O)O)cccc23)c(C(F)(F)F)c2cc(CN3CCC(F)CC3)ccc21 [Compound 834]
< 10 | 100 to 1000 |  |  | O=C(O)[C@H](Cc1cccc2c(-c3nccc4c(CN5CCCCC5)cccc34)cccc12)NC(=O)C1(C(F)(F)F)CCN([C@H]2COCC2(F)F)CC1 [Compound 641]
 |  | < 10 | 100 to 1000 | O=C(O)[C@H](Cc1cccc2c(-c3ncc(CN4CCN(C5CC5)CC4)c4ccccc34)cccc12)NC(=O)C1(C(F)(F)F)CCN(CC(F)F)CC1 [Compound 901]
> 1000 | > 1000 |  |  | Cn1c(=O)c(-c2cccc3c(C[C@H](NC(=O)C4(C(F)(F)F)CCN(C(c5ccccc5)C(F)(F)F)CC4)C(=O)O)cccc23)c(C(F)(F)F)c2ccccc21 (stereo partly drawn) [Compound 516]
 |  | < 10 | 100 to 1000 | CCOCc1cc(OC)c(-c2cccc3c(C[C@H](NC(=O)c4c(C)cccc4F)C(=O)O)cccc23)cc1CN1CCCCC1 [Compound 1008]
< 10 | 100 to 1000 |  |  | COC(=O)[C@H](Cc1cccc2c(-c3c(OC)ccc(CN(C)C)c3C(F)(F)F)cccc12)NC(=O)OC(C)(C)C [Compound 551]
10 to 100 | > 1000 |  |  | COc1ccc(CN2CCC(F)(F)CC2)c(OC)c1-c1cccc2c(C[C@H](NC(=O)c3c(C)cccc3F)C(=O)O)cccc12 [Compound 634]
 |  | 10 to 100 | > 1000 | O=C(O)[C@H](Cc1cccc2c(-c3nc(CN4CCCCC4)cc4ccccc34)cccc12)NC(=O)C1(C(F)(F)F)CCN(CC(F)(F)F)CC1 [Compound 988]
10 to 100 | 100 to 1000 |  |  | Cn1c(=O)c(-c2cccc3c(C[C@H](NC(=O)C4(C(F)(F)F)CCN(C5CC(F)(F)C5)CC4)C(=O)O)cccc23)c(C(F)(F)F)c2ccccc21 [Compound 493]
 |  | < 10 | 100 to 1000 | CC[C@H]1CCCCN1Cc1cnc(-c2cccc3c(C[C@H](NC(=O)C4(C(F)(F)F)CCN(CC(F)(F)F)CC4)C(=O)O)cccc23)c2ccccc12 [Compound 929]
 |  | 10 to 100 | > 1000 | COc1cccc(CCN2CCC(F)(F)CC2)c1-c1cccc2c(C[C@H](NC(=O)c3c(C)cccc3F)C(=O)O)cccc12 [Compound 1034]

IC50 (α4β7 integrin; [1]) [nM] | IC50 (α4β1 integrin; [2]) [nM] | IC50 (α4β7 integrin; [3]) [nM] | IC50 (α4β1 integrin; [4]) [nM] | Compound
 |  | 10 to 100 | > 1000 | CN1CCc2cc(-c3cccc4c(C[C@H](NC(=O)C5(C(F)(F)F)CCN(CC(F)(F)F)CC5)C(=O)O)cccc34)ncc2C1 [Compound 754]
> 1000 | > 1000 |  |  | Cn1c(=O)c(-c2cccc3c(C[C@H](NC(=O)C4(C(F)(F)F)CCN(C5(C(F)(F)F)CC5)CC4)C(=O)O)cccc23)c(C(F)(F)F)c2ccccc21 [Compound 486]
 |  | 10 to 100 | > 1000 | Cc1cccc(F)c1C(=O)N[C@@H](Cc1cccc2c(-c3cc(CN4CCCCC4)ccn3)cccc12)C(=O)O [Compound 688]
10 to 100 | > 1000 |  |  | COc1ccc(CN2CCC(F)(F)CC2)c(OC)c1-c1cccc2c(C[C@H](NC(=O)c3c(C)cc(NCC(F)(F)F)cc3F)C(=O)O)cccc12 [Compound 608]
10 to 100 | > 1000 |  |  | CCCS(=O)(=O)Nc1ccc(F)c(C(=O)N[C@@H](Cc2cccc3c(-c4c(C(F)(F)F)c5ccccc5n(C)c4=O)cccc23)C(=O)O)c1F [Compound 496]
< 10 | 100 to 1000 |  |  | COc1cncc(OC)c1-c1cccc2c(C[C@H](NC(=O)c3c(C)cccc3F)C(=O)O)cccc12 [Compound 477]
 |  | 10 to 100 | > 1000 | COc1cc(C(F)(F)F)cc(CCN2CCCCC2)c1-c1cccc2c(C[C@H](NC(=O)C3(C(F)(F)F)CCN(CC(F)(F)F)CC3)C(=O)O)cccc12 [Compound 741]
 |  | < 10 | > 1000 | COc1ccc(CN2CC3CCCCC3C2)c(OC)c1-c1cccc2c(C[C@H](NC(=O)C3(C(F)(F)F)CCN(CC(F)(F)F)CC3)C(=O)O)cccc12 (stereo partly drawn) [Compound 811]
 |  | < 10 | 100 to 1000 | COc1cccc(OCCN2CCCCC2)c1-c1cccc2c(C[C@H](NC(=O)C3(C(F)(F)F)CCN(CC(F)(F)F)CC3)C(=O)O)cccc12 [Compound 729]
< 10 | 100 to 1000 |  |  | COc1cccc(F)c1C(=O)N[C@@H](Cc1cccc2c(-c3c(CN4CCCCC4)cccc3OC)cccc12)C(=O)O [Compound 675]
 |  | < 10 | 100 to 1000 | COc1ccc(CN2CCC(C)(C)CC2)cc1-c1cccc2c(C[C@H](NC(=O)C3(C(F)(F)F)CCN(CC(F)F)CC3)C(=O)O)cccc12 [Compound 942]
 |  | < 10 | 100 to 1000 | COc1cccc(CCN2CCC[C@@H](F)C2)c1-c1cccc2c(C[C@H](NC(=O)C3(C(F)(F)F)CCN(CC(F)(F)F)CC3)C(=O)O)cccc12 [Compound 985]
 |  | 10 to 100 | > 1000 | COc1ccc(CN2CC(C(F)(F)F)C2)c(OC)c1-c1cccc2c(C[C@H](NC(=O)C3(C(F)(F)F)CCN(CC(F)(F)F)CC3)C(=O)O)cccc12 [Compound 814]
 |  | 10 to 100 | > 1000 | Cn1c(=O)c(-c2cccc3c(C[C@H](NC(=O)C4(C(F)(F)F)CCN(CC(F)(F)F)CC4)C(=O)O)cccc23)c(C(F)(F)F)c2ccc(CN3CCC(F)(F)CC3)cc21 [Compound 846]
< 10 | 100 to 1000 |  |  | COc1ccc(CN2CCC(CF)CC2)c(OC)c1-c1cccc2c(C[C@H](NC(=O)c3c(C)cccc3F)C(=O)O)cccc12 [Compound 652]
 |  | 10 to 100 | > 1000 | CCOCc1cc(CN2CCCCC2)c(-c2cccc3c(C[C@H](NC(=O)C4(C(F)(F)F)CCN(CC(F)(F)F)CC4)C(=O)O)cccc23)c(OC)c1 [Compound 751]
 |  | < 10 | > 1000 | COc1cccc(CCN2CCC(C)(C)CC2)c1-c1cccc2c(C[C@H](NC(=O)C3(C(F)(F)F)CCN(CC(F)(F)F)CC3)C(=O)O)cccc12 [Compound 960]

Compound | IC50 (α4β7 integrin; [1]) [nM] | IC50 (α4β1 integrin; [2]) [nM] | IC50 (α4β7 integrin; [3]) [nM] | IC50 (α4β1 integrin; [4]) [nM]
O=C(O)[C@H](Cc1cccc2c(-c3ncc(CN4C5CCCC4CC5)c4ccccc34)cccc12)NC(=O)C1(C(F)(F)F)CCN(CC(F)F)CC1 [Compound 911] |  |  | < 10 | > 1000
